Test results published in ChEMBL document CHEMBL5500352, “ML162 derivatives incorporating a naphthoquinone unit as ferroptosis/apoptosis inducers: Design, synthesis, anti-cancer activity, and drug-resistance reversal evaluation” (Eur J Med Chem, 2024).
Activity calls are given as the source filed them. The rule behind the calls is not given here.

Assays:
HT-1080 [1] = test: Induction of ferroptosis in human HT-1080 cells assessed as accumulation of lipid peroxidation at 10 uM after 6 hrs by BODIPYTM 581/591C11 probe based flow cytometry assay; assay type: functional, cell-based
[2] = Cytotoxicity against human HPNE cells; assay type: toxicity, cell-based
[3] = Selectivity index, ratio of IC50 for human HPNE cells to IC50 for human HT-1080 cells
HT-1080 [4] = test: Induction of ferroptosis in human HT-1080 cells assessed as accumulation of lipid peroxidation at 1 to 4 uM after 12 hrs by BODIPYTM 581/591C11 probe based flow cytometry assay; assay type: functional, cell-based; conditions: dose 1-4 µM
HT-1080 [5] = test: Induction of ferroptosis in human HT-1080 cells assessed as appearance of ruptured mitochondria at 4 uM after 24 hrs by transmission electron microscope analysis; assay type: functional, cell-based
HT-1080 [6] = test: Induction of ferroptosis in human HT-1080 cells assessed as mitochondrial swelling at 4 uM after 24 hrs by transmission electron microscope analysis; assay type: functional, cell-based
HT-1080 [7] = test: Cytotoxicity against human HT-1080 cells assessed as cell viability at 4 uM in presence of fer-1 (reference value: 30%); assay type: functional; conditions: read-out: Activity
[8] = biological target: T1, Phospholipid hydroperoxide glutathione peroxidase GPX4 (Homo sapiens) (UniProt P36969); test: Induction of GPX4 degradation in human HT-1080 cells after 24 hrs by Western blotting assay; assay type: cell-based; conditions: dose 1-4 µM
T1 sequence (whole entry): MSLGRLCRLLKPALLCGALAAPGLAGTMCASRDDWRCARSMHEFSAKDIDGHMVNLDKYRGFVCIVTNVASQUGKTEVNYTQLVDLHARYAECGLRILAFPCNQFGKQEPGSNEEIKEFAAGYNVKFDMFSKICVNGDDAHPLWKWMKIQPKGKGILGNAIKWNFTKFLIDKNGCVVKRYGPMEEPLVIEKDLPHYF

[9] = biological target: T1, Phospholipid hydroperoxide glutathione peroxidase GPX4 (Homo sapiens); test: Induction of GPX4 degradation in human HT-1080 cells at 2 to 4 uM after 24 hrs in presence of MG132 by Western blotting assay; assay type: cell-based; conditions: dose 2-4 µM
HT-1080 [10] = test: Induction of apoptosis in human HT-1080 cells assessed as increase in Bax level after 24 hrs by Western blotting analysis; assay type: functional, cell-based; conditions: dose 0.5-4 µM
HT-1080 [11] = test: Induction of apoptosis in human HT-1080 cells assessed as viable cells at 1 uM incubated for 24 hrs by Annexin-V FITC/PI staining based flow cytometry analysis (reference value: 92.5%); assay type: functional; conditions: read-out: Activity
HT-1080 [12] = test: Induction of apoptosis in human HT-1080 cells assessed as early apoptotic cells at 1 uM incubated for 24 hrs by Annexin-V FITC/PI staining based flow cytometry analysis (reference value: 1.85%); assay type: functional
HT-1080 [13] = test: Induction of apoptosis in human HT-1080 cells assessed as late apoptotic cells at 1 uM incubated for 24 hrs by Annexin-V FITC/PI staining based flow cytometry analysis (reference value: 1.66%); assay type: functional
HT-1080 [14] = test: Induction of apoptosis in human HT-1080 cells assessed as necrotic cells at 1 uM incubated for 24 hrs by Annexin-V FITC/PI staining based flow cytometry analysis (reference value: 3.98%); assay type: functional
HT-1080 [15] = test: Induction of apoptosis in human HT-1080 cells assessed as viable cells at 2 uM incubated for 24 hrs by Annexin-V FITC/PI staining based flow cytometry analysis (reference value: 92.5%); assay type: functional; conditions: read-out: Activity
HT-1080 [16] = test: Induction of apoptosis in human HT-1080 cells assessed as early apoptotic cells at 2 uM incubated for 24 hrs by Annexin-V FITC/PI staining based flow cytometry analysis (reference value: 1.85%); assay type: functional
HT-1080 [17] = test: Induction of apoptosis in human HT-1080 cells assessed as necrotic cells at 2 uM incubated for 24 hrs by Annexin-V FITC/PI staining based flow cytometry analysis (reference value: 3.98%); assay type: functional
HT-1080 [18] = test: Inhibition of colony formation in human HT-1080 cells incubated for 48 hrs followed by replacement with fresh media and measured after 12 days by crystal violet staining based assay; assay type: functional, cell-based; conditions: dose 1-2 µM
HT-1080 [19] = test: Inhibition of cell migration in human HT-1080 cells incubated for 24 to 48 hrs by inverted microscope based wound healing assay; assay type: functional; conditions: dose 1-2 µM, time 24-48 hrs
HT-1080 [20] = test: Antitumor activity against human HT-1080 cells xenografted in BALB/c nude mouse assessed as tumor growth inhibition at 40 mg/kg, ip administered once daily for 19 days and measured every 2 days; assay type: functional; conditions: HT-1080, 456 h, time 19 day, read-out: TGI
HT-1080 [21] = test: Antitumor activity against human HT-1080 cells xenografted in BALB/c nude mouse assessed as tumor growth inhibition at 20 mg/kg, ip administered once daily for 19 days and measured every 2 days; assay type: functional, organism-based; conditions: time 19.0 day
HT-1080 [22] = test: Antitumor activity against human HT-1080 cells xenografted in ip dosed BALB/c nude mouse assessed as tumor growth inhibition administered once daily for 19 days and measured every 2 days; assay type: functional, organism-based; conditions: dose 20-40 mg/kg, time 19.0 day
HT-1080 [23] = test: Antitumor activity against human HT-1080 cells xenografted in ip dosed BALB/c nude mouse assessed as reduction in GPX4 level administered once daily for 19 days and measured every 2 days by immunohistochemistry assay; assay type: functional, organism-based; conditions: dose 20-40 mg/kg, time 19.0 day
[24] = Toxicity in BALB/c nude mouse xenografted with human HT-1080 cells assessed as change in heart morphology at 20 to 40 mg/kg, ip administered once daily for 19 days and measured every 2 days by H and E staining based assay; assay type: organism-based; conditions: in vivo, 456 h, dose 20-40 mg/kg, time 19 day
[25] = Toxicity in BALB/c nude mouse xenografted with human HT-1080 cells assessed as change in spleen morphology at 20 to 40 mg/kg, ip administered once daily for 19 days and measured every 2 days by H and E staining based assay; assay type: organism-based; conditions: in vivo, 456 h, dose 20-40 mg/kg, time 19 day
[26] = Toxicity in BALB/c nude mouse xenografted with human HT-1080 cells assessed as change in lung morphology at 20 to 40 mg/kg, ip administered once daily for 19 days and measured every 2 days by H and E staining based assay; assay type: organism-based; conditions: in vivo, 456 h, dose 20-40 mg/kg, time 19 day
[27] = Toxicity in BALB/c nude mouse xenografted with human HT-1080 cells assessed as cellular inflammation at 20 to 40 mg/kg, ip administered once daily for 19 days and measured every 2 days by H and E staining based assay; assay type: organism-based; conditions: in vivo, 456 h, dose 20-40 mg/kg, time 19 day
[28] = Toxicity in BALB/c nude mouse xenografted with human HT-1080 cells assessed as edema at 20 to 40 mg/kg, ip administered once daily for 19 days and measured every 2 days by H and E staining based assay; assay type: organism-based; conditions: in vivo, 456 h, dose 20-40 mg/kg, time 19 day
[29] = Toxicity in BALB/c nude mouse xenografted with human HT-1080 cells assessed as necrosis at 20 to 40 mg/kg, ip administered once daily for 19 days and measured every 2 days by H and E staining based assay; assay type: organism-based; conditions: in vivo, 456 h, dose 20-40 mg/kg, time 19 day
[30] = tested on: AMG 510-resistant MIA PaCa-2; test: Cytotoxicity against human AAMG 510-resistant MIA PaCa-2 cells upto 5 uM; assay type: functional, cell-based
[31] = Potentiation of AMG510 induced cytotoxicity in human AMG 510-resistant MIA PaCa-2 cells assessed as reduction in cell survival rate at 5 uM in presence of 10 nM AMG510 (reference value: 90%); assay type: functional
[32] = Potentiation of AMG510 induced cytotoxicity in human AMG 510-resistant MIA PaCa-2 cells assessed as reduction in cell survival rate at 1 uM in presence of 10 nM AMG510 (reference value: 90%); assay type: functional

## O=C(CCCCCNC1=CC(=O)c2ccccc2C1=O)Nc1ccc(N(C(=O)CCl)C(C(=O)NCCc2ccccc2)c2cccs2)cc1 (configuration not stated)
HT-1080 [1]
  Activity: Active
[2]
  IC50: 9.55 µM
[3]
  Ratio IC50: 5.96
HT-1080 [4]
  Activity: Active
HT-1080 [5]
  Activity: Active
HT-1080 [6]
  Activity: Active
HT-1080 [7]
  viability at 4 µM: 66%
[8]
  Activity: Dose-Dependent Effect
[9]
  Activity: inactive
HT-1080 [10]
  Activity: Dose-Dependent Effect
HT-1080 [11]
  viability at 1 µM: 90.7%
HT-1080 [12]
  Activity: 3.85%
HT-1080 [13]
  Activity: 3.11%
HT-1080 [14]
  Activity: 2.32%
HT-1080 [15]
  viability at 2 µM: 82.7%
HT-1080 [16]
  Activity: 8.48%
HT-1080 [17]
  Activity: 4.02%
HT-1080 [18]
  inhibition: Dose-Dependent Effect
HT-1080 [19]
  inhibition: Dose-Dependent Effect
HT-1080 [20]
  inhibition in vivo at 40 mg/kg: 63%
HT-1080 [21]
  Activity: Active
HT-1080 [22]
  Activity: Dose-Dependent Effect
HT-1080 [23]
  Activity: Dose-Dependent Effect
[24]
  Activity: Non-Toxic
[25]
  Activity: Non-Toxic
[26]
  Activity: Non-Toxic
[27]
  Activity: Non-Toxic
[28]
  Activity: Non-Toxic
[29]
  Activity: Non-Toxic
[30]
  Activity: inactive
[31]
  Activity: ~10%
[32]
  Activity: ~60%
